Assay results published in patent US11890279B2, “Quinolines that modulate SERCA and their use for treating disease” (Neurodon Corporation, priority 2020, dated 2024).
Each block holds one molecule with its values, some of them ahead of it.

Assays:
[1] = Pharmacokinetics in Beagle dogs; type: in vivo; details: dog; for MRT inf: read-out: MRT0-∞
Method: Pharmacokinetics of compound A13 was assessed in dogs. […] For pharmacokinetic evaluation, 3 male Beagle dogs were intravenously (IV) dosed (1 mg/kg body weight) and 3 male Beagle dogs were orally (PO) dosed (10 mg/kg body weight) with a test compound. Blood (approximately 1.0 mL) was collected via femoral vein into tubes containing K3EDTA anticoagulant at 0, 0.017, 0.083, 0.5, 1, 2, 4, 6, 8, and 24 hours post-dosing. Plasma samples were analyzed by LC-MS/MS. The analytical results were confirmed using quality control samples for intra-assay variation. The accuracy of >66% of the quality control samples was between 80-120% of the known value(s). A standard set of pharmacokinetic parameters were generated from concentration data including Area Under the Curve (AUC0-t and AUC0-inf), elimination half-lives, clearances, volume of distribution and bioavailabilities (based on AUC0-t), maximum plasma concentration (C0; Cmax), and time to reach maximum plasma concentration (Tmax).

[2] = tested on: Ca^2+-ATPase; assay: Ca2+-ATPase assay, microsomal preparations from HEK 293 cells; type: biochemical, human
Method: A Ca^2+-ATPase assay was performed using microsomal preparations from HEK 293 cells at a series of calcium concentrations corresponding to the physiological range, relative to controls. The ATP hydrolysis rate was measured over a range of calcium concentrations in the presence of test compounds using an NADH-linked, enzyme-coupled ATPase assay adapted for 96-well microplates, with Vmax determined by fitting the ATPase calcium-dependence to the Hill function. […] CaCl2 was added to set free [Ca^2+] to the specific values.

[3] = Pharmacokinetics in Sprague Dawley rats; type: in vivo, rat; details: rat; for AUC(0-t): read-out: AUC0-t; for MRT inf: read-out: MRT0-∞
Method: Blood was drawn at 5 min, 15 min, 30 min, 1 hr, 2 hrs, 4 hrs, 6 hrs, and 8 hrs into EDTA containing tubes and plasma was harvested by centrifugation. Plasma (25 μL) was treated with acetonitrile (125 μL) containing an internal standard. The sample was then centrifuged for 5 min at 4,000 rpm in a tabletop centrifuge and the filtrate was collected. The filtrate was injected onto a Thermo Betasil C18 HPLC column 5 (50×2.1 mm). Mobile Phase A was water with 0.1% formic acid. Mobile Phase B was acetonitrile with 0.1% formic acid. […] An API Sciex 4000 equipped with a turbo ion spray source was used for all analytical measurements. A positive ion MRM method was developed. Peak areas of the product ion were measured against the peak areas of the internal standard. Data was fit using WinNonLin (Pharsight Corporation, Mountain View, CA).

[4] = tested on: human islet microtissues; assay: Protection of human pancreatic islets under cytokine stress; type: cell-based; details: 168 h, compound 5 μM, cytokine cocktail IL1-β, IFN-γ, TNF-α, 7 days, read-out: increase in viability over baseline (total ATP content)
Method: Human pancreatic islet microtissues treated with cytokines were used to model the conditions of Type 1 Diabetes in vitro. This study tested the effects of compounds on […] viability in human islets under cytokine stress. The model consisted of human islet microtissues from an HLA-A2 positive donor grown and separated in a 96-well plate (1 microtissue per well). The microtissues were treated for 7 days with a cocktail of cytokines (IL1-β 5 ng/mL, IFN-γ 25 ng/mL, TNF-α 25 ng/mL) and compound (5 μM) or vehicle. There were 6 microtissues treated per compound or vehicle. At day 7, the total ATP content was measured using CellTiter-Glo (Promega).

[5] = Pharmacokinetics in CD-1 mice; type: in vivo, mouse; details: for F / AUC / Cmax / half-life: CD-1 mice; for F: 10 mg/kg P.O. vs 2 mg/kg i.v.; for AUC / Cmax / half-life: mouse, plasma, 2 mg/kg i.v. or 10 mg/kg P.O.; for pharmacokinetic properties as measured by CMAX, AUC and F (%): compared with other SERCA modulators, see Table 6
Method: Pharmacokinetics of test compounds were assessed in CD-1 mice. The compounds were formulated at 1 mg/mL in DMSO/Tween 80/water (10/10/80, vol/vol/vol) and dosed at 2 mg/kg intravenous (i.v.) or 10 mg/kg by oral gavage (P.O.) in triplicate. Blood was drawn at 0.25 h, 0.5 h, 1 hr, 2 hrs, 4 hrs, 8 hrs, and 24 hrs into EDTA containing tubes and plasma was harvested by centrifugation. Plasma (10 μL) containing 50% acetonitrile in water (5 μL) was added to 200 μL of ACN containing an internal standard. The samples were vortexed for 30 s. After centrifugation at […] and 4,000 rpm for 15 min, the supernatant was diluted 3 times with water. Then, 20 μL of diluted supernatant was injected into the LC/MS/MS system for quantitative analysis. The samples were injected onto an Agilent ZORBAX XDB-Phenyl 5μ column (50×2.10 mm). Mobile Phase A was water with 0.1% formic acid. Mobile Phase B was acetonitrile with 0.1% formic acid. Separation was achieved using a gradient of 70% A/30% B to 0% A/100% B over 2.10 min. A Shimadzu LCMS-8050 equipped with a turbo ion spray source was used for all analytical measurements. A positive ion MRM method was developed. Peak areas of the product ion were measured against the peak areas of the internal standard. Data was fit using WinNonLin (Pharsight Corporation, Mountain View, CA).

[6] = tested on: SERCA (SR vesicles); assay: Activation of SERCA, increase in Vmax; type: biochemical
Method: Test compounds were characterized over a range of concentrations using an NADH-linked, enzyme-coupled ATPase assay. Each well contained 2 mg or 7 mg of SR vesicles (optimized for skeletal or cardiac SR, respectively), 50 mM MOPS (pH 7.0), 100 mM KCl, 5 mM MgCl2, 1 mM EGTA, 0.2 mM NADH, 1 mM phosphoenol pyruvate, 5 IU pyruvate kinase, 5 IU lactate dehydrogenase, and 3.5 mg/mL A23187 (a calcium ionophore), and CaCl2 was added to set free [Ca2+] to the specific values. The assay was started upon addition of ATP at a final concentration of 5 mM, and read in a SpectraMax Plus microplate spectrophotometer and the ATPase activities were fitted using the Hill function.

[7] = tested on: HEK293 cells; assay: Protection against thapsigargin (TG)-induced cell death, HEK293; type: cell-based, human; details: compound 20 μM; thapsigargin 15 μM; 24 hrs
Method: (§1) Protection against Thapsigargin (TG)-induced Cell-death. Human embryonic kidney (HEK293) cells were grown in Dulbecco's Modified Eagle's Medium (DMEM) with 10% FBS and 1% antibiotic antimycotic solution (ABAM). Mouse neuroblastoma (N2a) cells were grown in 1:1 DMEM:OPTI-MEM® with 5% FBS and 1% ABAM. All cells were grown in 10% CO2 in a humidified environment of the incubator. Cells grown in 96-well plates were exposed to a test compound (20 μM) for 2 hrs before addition of thapsigargin (15 μM for HEK293 cells and 1 μM for N2a cells) to induce ER stress. After incubation in cell-culture incubator for 24 hrs, ALAMARBLUE® regent (10% v/v) was added to the wells. Fluorescence reading was taken 2 hrs after the addition of the ALAMARBLUE® regent. Cell-viability was calculated as a percentage of relative fluorescence unit (RFU) compared to control.
(§2) The results are summarized in Table 2, where A represents a value greater than 50% cell rescue, B represents a value between 10% to 50% cell rescue, C represents a value between 1% to 10% cell rescue, and D represents a value no greater than 1% cell rescue.

[8] = tested on: ob/ob mice; assay: Effect on the level of blood glucose in ob/ob mice; type: in vivo, mouse; details: for blood glucose: 10 or 50 mg/kg i.p. once a day for 5 days, as early as day 2; for glucose level after the last injection: for over a week after the last injection
Method: Fasting glucose was measured at baseline and 10 hours after the administration of the test compound. Glucose levels were measured in blood samples drawn from the tail vein using the OneTouch Ultra 2 Meter (LifeScan, Inc.).

[9] = tested on: CSM14.1 cells; assay: ER stress cell survival assay (thapsigargin); type: cell-based; details: compound 2 μM; about 15 μM thapsigargin; CSM14.1 cells;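 further: survival read as CellTiter-Glo luminescence after overnight incubation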
[10] = tested on: N2a cells; assay: Protection against hydrogen peroxide-induced cell death, N2a; type: cell-based, mouse; details: compound 40 μM; hydrogen peroxide 200 μM
In short: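 N2a cells were pretreated 2 h with compound at 40 μM, then exposed to 200 μM H2O2 for 40 min. AlamarBlue (10% v/v) was added and fluorescence read 2 h later. Viability expressed as % RFU of control, reported as % cell rescue.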

[11] = tested on: N2a cells; assay: Protection against thapsigargin (TG)-induced cell death, N2a; type: cell-based, mouse; details: compound 20 μM; thapsigargin 1 μM; 24 hrs
Method: as §1, §2

[12] = male, Beagle, plasma, IV 1 mg/kg
[13] = male, Beagle, plasma, PO 10 mg/kg
[14] = Sprague Dawley, in vivo, IV 2 mg/kg
[15] = Sprague Dawley, in vivo, PO 10 mg/kg

F ([1]; PO 10 mg/kg vs IV 1 mg/kg): 1.4% | AUC(0-inf) [1, 12]: 96 ± 12 ng·h/mL | AUC(0-t) [1, 12]: 95 ± 12 ng·h/mL | Cmax [1, 12]: 2200 ± 500 nM | Tmax [1, 12]: 1.2 min | clearance [1, 12]: 177 mL/min/kg | half-life [1, 12]: 20.4 min | MRT inf [1, 12]: 12.6 min | Vd ([1]; male, Beagle, plasma, IV 1 mg/kg, read-out: Vz): 5.4 L/kg | Cmax [1, 13]: 80 ± 60 nM | Tmax [1, 13]: 21.6 min | half-life [1, 13]: 22.2 min | MRT inf [1, 13]: 37.2 min | AUC(0-inf) [3, 14]: 847 ± 29 ng·h/mL | Cmax [3, 14]: 8370 ± 1100 nM | Tmax [3, 14]: 4.8 min | clearance [3, 14]: 39.3 mL/min/kg | half-life [3, 14]: 121 min | AUC(0-t) [3, 14]: 842 ± 31 ng·h/mL | MRT inf [3, 14]: 27 min | Vd ([3]; Sprague Dawley, in vivo, IV 2 mg/kg, read-out: Vz): 6.87 L/kg | AUC(0-inf) [3, 15]: 234 ± 154 ng·h/mL | Cmax [3, 15]: 800 ± 350 nM | Tmax [3, 15]: 25.2 min | half-life [3, 15]: 22.8 min | AUC(0-t) [3, 15]: 232 ± 154 ng·h/mL | MRT inf [3, 15]: 38.4 min | F ([3]; PO 10 mg/kg vs IV 2 mg/kg): 5.5% | F [5]: 3.1% | AUC [5]: 26 ng·h/mL | Cmax [5]: 120 nM | half-life [5]: 50.4 min
SMILES: Cc1ccc2cccc(NC(=O)c3cccc(OC(C)C)c3)c2n1 [Compound A13, 3-Isopropoxy-N-(2-methylquinolin-8-yl)benzamide]
increase in baseline ATPase activity [2]: 10-15% | viability at 5 µM [4]: 20 to 50% | Increase in Vmax at 10 μM [6]: B′ (B′ represents an increase between 20 to 50%)

F [5]: 27% | AUC [5]: 344 ng·h/mL | Cmax [5]: 850 nM | half-life [5]: 138 min
SMILES: CCNc1ccc(C(=O)Nc2cccc3ccc(C)nc23)cc1 [Compound C19, 4-(Ethylamino)-N-(2-methylquinolin-8-yl)benzamide]
increase in baseline ATPase activity [2]: 10-15% | viability at 5 µM [4]: 20 to 50% | pharmacokinetic properties as measured by CMAX, AUC and F (%) [5]: significantly improved pharmacokinetic properties | HEK293 Cells (TG-induced) cell rescue [7]: A (A represents a value greater than 50% cell rescue) | blood glucose [8]: significantly lowered | glucose level after the last injection [8]: identical to lean mice | Cell Survival [9]: A (A represents a value greater than 50%) | N2a Cells (H2O2-induced) cell rescue [10]: A (A represents a value greater than 50% cell rescue) | N2a Cells (TG-induced) cell rescue [11]: B (B represents a value between 10% to 50% cell rescue)

F [5]: 28% | AUC [5]: 330 ng·h/mL | Cmax [5]: 860 nM | half-life [5]: 39.6 min
SMILES: Cc1ccc2cccc(NC(=O)c3ccc(NC(C)C)cc3)c2n1 [Compound C20, 4-(Isopropylamino)-N-(2-methylquinolin-8-yl)benzamide]
increase in baseline ATPase activity [2]: greater than 15% | viability at 5 µM [4]: 20 to 50% | pharmacokinetic properties as measured by CMAX, AUC and F (%) [5]: significantly improved pharmacokinetic properties | HEK293 Cells (TG-induced) cell rescue [7]: B (B represents a value between 10% to 50% cell rescue) | blood glucose [8]: significantly lowered | glucose level after the last injection [8]: identical to lean mice | Cell Survival [9]: A (A represents a value greater than 50%) | N2a Cells (H2O2-induced) cell rescue [10]: B (B represents a value between 10% to 50% cell rescue) | N2a Cells (TG-induced) cell rescue [11]: B (B represents a value between 10% to 50% cell rescue)
